Source: patent publication US5663154A, “2',3'-dideoxy-3'-fluoro-purine ribonucleosides” (Glaxo Wellcome Inc., priority 1992, dated 1997)
Where “and” joins values, the source holds several entries; their conditions need not be identical. Equal entries are not always repeated.

What was measured:
Hepatitis B Virus (HBV) = test: Antiviral activity against HBV: extracellular HBV DNA from HepG2 2.2.15 cells; assay type: cell-based, human HBV; details: culture medium, treated at 25 μm (so in the source)
Procedure: Anti-HBV activity of compounds of formula (I) was determined using a method described by Korba B. E. and Milman G., Antiviral Research, 1991, Vol.15, pp217-228.
The assay utilises the human HBV producer cell line of HepG2, 2.2.15, described and characterized by Sells et al., PNAS 84, 1005 (1987) and J. Virol. […] This cell line was utilized in vitro to identify compounds with anti-HBV activity.
Supernatant media containing extracellular virion DNA (Dane particles) were harvested on days 0, 4 and 9, treated with proteinase K (1 mg/mL) and sodium dodecyl sulfate (1%), and incubated at 50° C. for one hour. DNA was extracted with equal volumes of phenol followed by chloroform and then precipitated using ammonium acetate and propanol. […] After precipitation by ammonium acetate and propanol, the intracellular DNA precipitate was dissolved, cut by restriction endonuclease, Hind III, applied co agarose gel and then treated as described by Southern to determine the quantity of replicative intermediate forms. The antiviral effect of the drug was determined by measuring at least a 100-fold reduction in the amount of Dane particles extruded into the culture medium and a similar decrease in the intracellular replicative intermediates.

HIV = test: Antiviral activity against HIV: reversal of cytopathic effect in MT4 cells, propidium iodide dye uptake; assay type: cell-based; details: Human immunodeficiency virus 1, 120 h, HIV-1 (strain 3B) or HIV-2 (Zagury strain), not stated which, 5 days
Procedure: Anti-HIV activity of compounds of formula (I) was determined using the method of Averett D. R., 1989, J. Virol. Methods, 23, pp263-276, by measuring the ability of the compound to reverse the cytopathic effect of HIV infection. This was determined by a quantitative assessment of cell growth monitored at the fifth day post infection by a propidium iodide dye uptake test. MT4 cells were incubated with 100XTCID50 of HIV-1 (strain 3B) or HIV-2 (Zagury strain) for one hour prior to addition of the compound in six different concentrations varying from 2 to 200 μM. The cells were allowed to incubate for five days at 37° C. On day 5, NP-40, a detergent, was added to a final concentration of 0.5% immediately prior to analysis. Cell number was determined using a method which measures the fluorescence of a dye (propidium iodide) which binds to DNA. Since the amount of DNA is directly proportional to cell number, this fluorescence assay is an indication of cell growth. While uninfected cells double in cell number several times during the five days duration of the assay, HIV-infected cells grow very little, if at all. A compound which reverses the cytopathic effect of HIV would allow for rapid cell growth, approaching that of the mock-infected cells. […]

## CN(C)c1nc(N)nc2c1ncn2[C@H]1C[C@H](F)[C@@H](CO)O1 [Example 13, 2-Amino-9-(2,3-dideoxy-3-fluoro-β-D-erythro-pentofuranosyl)-6-(dimethylamino)-9H-purine]
Hepatitis B Virus (HBV); Day 0
  Extracellular HBV DNA, Day 0: 60 pg/mL and 99 pg/mL and 77 pg/mL and 67 pg/mL
Hepatitis B Virus (HBV); Day 4
  Extracellular HBV DNA, Day 4: 57 pg/mL and 33 pg/mL and 53 pg/mL and 51 pg/mL
HIV
  IC50: 8 µM
